Assay results from US8933235B2, “Pyridinedione carboxamide inhibitors of endothelial lipase” (Bristol-Myers Squibb Company, priority 2011, dated 2015).

These molecules were tested against T1, endothelial lipase (EL) (Homo sapiens, UniProt Q9Y5X9) (assay: Endothelial lipase (EL) enzymatic assay with fluorescent substrate A10070 in DMPG vesicles). Conditions: conditioned media from HT-1080 cells overexpressing endogenous EL; 20 min preincubation at 37° C.; read-out: HLE_EL_CRC IC50.
T1 construct: Conditioned media obtained from HT-1080 cells, which were transformed by RAGE technology (Athersys) to overexpress endogenous EL; endogenous in cells; conditioned medium used as the enzyme source
T1 sequence (Q9Y5X9 21-500): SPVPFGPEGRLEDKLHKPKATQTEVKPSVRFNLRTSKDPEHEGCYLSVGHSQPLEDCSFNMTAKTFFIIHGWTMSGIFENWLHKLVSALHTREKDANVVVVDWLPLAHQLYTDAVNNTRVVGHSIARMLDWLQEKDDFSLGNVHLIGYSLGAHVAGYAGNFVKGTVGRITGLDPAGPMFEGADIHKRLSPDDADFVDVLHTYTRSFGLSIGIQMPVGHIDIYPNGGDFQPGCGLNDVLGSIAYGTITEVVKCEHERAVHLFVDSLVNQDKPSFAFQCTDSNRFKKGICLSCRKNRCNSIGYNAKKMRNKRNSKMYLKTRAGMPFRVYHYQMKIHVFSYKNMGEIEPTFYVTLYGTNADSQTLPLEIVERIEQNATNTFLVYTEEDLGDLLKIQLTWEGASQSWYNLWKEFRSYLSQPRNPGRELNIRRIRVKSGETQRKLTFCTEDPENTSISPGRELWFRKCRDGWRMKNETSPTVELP
Assay type: biochemical
Procedure: Endothelial lipase activity was measured using a fluorescent substrate, A10070, (Invitrogen, CA) doped into an artificial vesicle containing DMPG (Avanti Polar Lipids) as the excipient. Vesicles were prepared by combining 285 uL of 1 mM DMPG in a 1:1 mixture of MeOH and CHCl3 with 15 uL of 1 mM A10070 in a 1:1 mixture of MeOH and CHCl3. The mixture was dried under nitrogen and resuspended in 150 uL of 50 mM HEPES pH 8.0 buffer containing 100 mM NaCl and 0.2 mM EDTA. The sample was allowed to sit at rt for 15 min and then was sonicated 3×4 mins on ice with a Branson Sonicator using duty cycle 1. This preparation provides vesicles with a mole fraction of 0.05 for the FRET substrate.
The enzymatic assay was measured using white, opaque 96-well half area plates. Each well contained 60 uL of assay buffer (50 mM HEPES pH 8.0, 50 mM NaCl and 1 mM CaCl2) and 2 ul of a DMSO solution containing compound of interest. Conditioned media obtained from HT-1080 cells, which were transformed by RAGE technology (Athersys) to overexpress endogenous EL, was added and the reaction was allowed to incubate for 20 min at 37° C. with gentle agitation. The reaction was started by the addition of 20 uL of a 1:4 dilution of vesicles. The final total reaction volume was 100 uL. The reaction rates were measured on a Gemini plate reader with an excitation wavelength of 488 nm and a emission of 530 nm. Readings were taken every 20 seconds for 10 min with agitation between each reading. The slope of the linear portion of the readout was used to calculate the rate of the reaction.
`CC(C)C(CCc1ccc(Cl)c(Cl)c1)NC(=O)c1ccn(C)c(=O)c1O` (single isomer, unassigned) [Example 114, N-(1-(3,4-dichlorophenyl)-4-methylpentan-3-yl)-3-hydroxy-1-methyl-2-oxo-1,2-dihydropyridine-4-carboxamide] was tested, and the IC50 was 6860 nM. With `CC(C)C(CCc1ccc(Cl)c(Cl)c1)NC(=O)c1ccn(C)c(=O)c1O` (single isomer, unassigned) [Example 115, N-(1-(3,4-dichlorophenyl)-4-methylpentan-3-yl)-3-hydroxy-1-methyl-2-oxo-1,2-dihydropyridine-4-carboxamide] the IC50 was 1790 nM. With `Cn1ccc(C(=O)NC(CCc2ccc(Cl)c(Cl)c2)C2CC2)c(O)c1=O` (single isomer, unassigned) [Example 118, N-(1-cyclopropyl-3-(3,4-dichlorophenyl)propyl)-3-hydroxy-1-methyl-2-oxo-1,2-dihydropyridine-4-carboxamide] the IC50 was 2700 nM. `Cn1ccc(C(=O)NC(CCc2ccc(Cl)c(Cl)c2)C2CC2)c(O)c1=O` (single isomer, unassigned) [Example 119, N-(1-cyclopropyl-3-(3,4-dichlorophenyl)propyl)-3-hydroxy-1-methyl-2-oxo-1,2-dihydropyridine-4-carboxamide] showed an IC50 of 1620 nM. Molecule `Cn1ccc(C(=O)NC(CCc2ccc(Cl)c(Cl)c2)c2ccccc2)c(O)c1=O` (single isomer, unassigned) [Example 120, N-(3-(3,4-dichlorophenyl)-1-phenylpropyl)-3-hydroxy-1-methyl-2-oxo-1,2-dihydropyridine-4-carboxamide] has an IC50 of 167 nM. For `Cn1c(-c2cc(F)cc(C(F)(F)F)c2)cc(C(=O)NCCCc2ccc(Cl)c(Cl)c2)c(O)c1=O` [Example 7, N-(3-(3,4-dichlorophenyl)propyl)-6-(3-fluoro-5-(trifluoromethyl)phenyl)-3-hydroxy-1-methyl-2-oxo-1,2-dihydropyridine-4-carboxamide], the IC50 was under 10 nM. `Cn1c(-c2ccc(Cl)c(C(F)(F)F)c2)cc(C(=O)NCCCc2ccc(Cl)c(Cl)c2)c(O)c1=O` [Example 8, 6-(4-chloro-3-(trifluoromethyl)phenyl)-N-(3-(3,4-dichlorophenyl)propyl)-3-hydroxy-1-methyl-2-oxo-1,2-dihydropyridine-4-carboxamide] gave an IC50 of under 10 nM. Molecule `Cn1c(-c2cc(F)cc(F)c2)cc(C(=O)NCCCc2ccc(Cl)c(Cl)c2)c(O)c1=O` [Example 19, N-(3-(3,4-dichlorophenyl)propyl)-6-(3,5-difluorophenyl)-3-hydroxy-1-methyl-2-oxo-1,2-dihydropyridine-4-carboxamide] has an IC50 of under 10 nM. `Cn1c(-c2cccc(C(=O)O)c2)cc(C(=O)NCCCc2ccc(Cl)c(Cl)c2)c(O)c1=O` [Example 45, 3-(4-(3-(3,4-dichlorophenyl)propylcarbamoyl)-5-hydroxy-1-methyl-6-oxo-1,6-dihydropyridin-2-yl)benzoic acid] was tested, and the IC50 was 199 nM. For `Cn1c(-c2cc(F)cc(C(F)(F)F)c2)cc(C(=O)NCCCOc2ccccc2Cl)c(O)c1=O` [Example 48, N-(3-(2-chlorophenoxy)propyl)-6-(3-fluoro-5-(trifluoromethyl)phenyl)-3-hydroxy-1-methyl-2-oxo-1,2-dihydropyridine-4-carboxamide], the IC50 was under 10 nM. `COc1ccc(CCNC(=O)c2cc(-c3cc(F)cc(C(F)(F)F)c3)n(C)c(=O)c2O)cc1` [Example 51, 6-(3-fluoro-5-(trifluoromethyl)phenyl)-3-hydroxy-N-(4-methoxyphenethyl)-1-methyl-2-oxo-1,2-dihydropyridine-4-carboxamide] was tested, and the IC50 was 178 nM. In the case of `Cn1c(-c2cc(F)cc(C(F)(F)F)c2)cc(C(=O)NCCc2cccc(C(F)(F)F)c2)c(O)c1=O` [Example 56, 6-(3-fluoro-5-(trifluoromethyl)phenyl)-3-hydroxy-1-methyl-2-oxo-N-(3-(trifluoromethyl)phenethyl)-1,2-dihydropyridine-4-carboxamide], the IC50 is reported as 216 nM. For `Cn1c(-c2cc(F)cc(C(F)(F)F)c2)cc(C(=O)NCCc2ccc(C(F)(F)F)cc2)c(O)c1=O` [Example 60, 6-(3-fluoro-5-(trifluoromethyl)phenyl)-3-hydroxy-1-methyl-2-oxo-N-(4-(trifluoromethyl)phenethyl)-1,2-dihydropyridine-4-carboxamide], the IC50 was 198 nM. Work on `Cn1c(-c2cc(F)cc(C(F)(F)F)c2)cc(C(=O)NCCCOc2ccc(F)cc2)c(O)c1=O` [Example 64, 6-(3-fluoro-5-(trifluoromethyl)phenyl)-N-(3-(4-fluorophenoxy)propyl)-3-hydroxy-1-methyl-2-oxo-1,2-dihydropyridine-4-carboxamide] yielded an IC50 of under 10 nM. Work on `COC(=O)c1cccc(OCCCNC(=O)c2cc(-c3cc(F)cc(C(F)(F)F)c3)n(C)c(=O)c2O)c1` [Example 71, methyl 3-(3-(6-(3-fluoro-5-(trifluoromethyl)phenyl)-3-hydroxy-1-methyl-2-oxo-1,2-dihydropyridine-4-carboxamido)propoxy)benzoate] yielded an IC50 of under 10 nM. With `Cn1c(-c2cc(F)cc(C(F)(F)F)c2)cc(C(=O)NCCCOc2ccc(Cl)c(Cl)c2)c(O)c1=O` [Example 77, N-(3-(3,4-dichlorophenoxy)propyl)-6-(3-fluoro-5-(trifluoromethyl)phenyl)-3-hydroxy-1-methyl-2-oxo-1,2-dihydropyridine-4-carboxamide] the IC50 was under 10 nM. In the case of `Cn1c(-c2cc(F)cc(C(F)(F)F)c2)cc(C(=O)NCCCOc2ccccc2[N+](=O)[O-])c(O)c1=O` [Example 81, 6-(3-fluoro-5-(trifluoromethyl)phenyl)-3-hydroxy-1-methyl-N-(3-(2-nitrophenoxy)propyl)-2-oxo-1,2-dihydropyridine-4-carboxamide], the IC50 is reported as under 10 nM. In the case of `Cn1c(C(F)(F)F)cc(C(=O)NCCCOc2ccccc2Cl)c(O)c1=O` [Example 88, N-(3-(2-chlorophenoxy)propyl)-3-hydroxy-1-methyl-2-oxo-6-(trifluoromethyl)-1,2-dihydropyridine-4-carboxamide], the IC50 is reported as under 10 nM. `Cn1c(C(F)(F)F)cc(C(=O)NCCCOc2ccccc2C(F)(F)F)c(O)c1=O` [Example 89, 3-hydroxy-1-methyl-2-oxo-6-(trifluoromethyl)-N-(3-(2-(trifluoromethyl)phenoxy)propyl)-1,2-dihydropyridine-4-carboxamide] gave an IC50 of under 10 nM. Work on `COc1c(C(=O)NCCCc2ccc(Cl)c(Cl)c2)ccn(C)c1=O` [Example 113, N-(3-(3,4-dichlorophenyl)propyl)-3-methoxy-1-methyl-2-oxo-1,2-dihydropyridine-4-carboxamide] yielded an IC50 of 5820 nM. With `CC(CCc1ccccc1)NC(=O)c1ccn(C)c(=O)c1O` (stereo not drawn) [Example 126, 3-hydroxy-1-methyl-2-oxo-N-(4-phenylbutan-2-yl)-1,2-dihydropyridine-4-carboxamide] the IC50 was 2460 nM. `Cn1ccc(C(=O)NCCc2ccccc2Cl)c(O)c1=O` [Example 127, N-(2-chlorophenethyl)-3-hydroxy-1-methyl-2-oxo-1,2-dihydropyridine-4-carboxamide] gave an IC50 of 8660 nM. Work on `COc1ccc(CCNC(=O)c2ccn(C)c(=O)c2O)cc1` [Example 128, 3-hydroxy-N-(4-methoxyphenethyl)-1-methyl-2-oxo-1,2-dihydropyridine-4-carboxamide] yielded an IC50 of 6620 nM. `Cn1ccc(C(=O)NCc2ccc(C(F)(F)F)cc2)c(O)c1=O` [Example 129, 3-hydroxy-1-methyl-2-oxo-N-(4-(trifluoromethyl)benzyl)-1,2-dihydropyridine-4-carboxamide] gave an IC50 of 3560 nM. Molecule `Cn1ccc(C(=O)NCCc2ccc(C(F)(F)F)cc2)c(O)c1=O` [Example 136, 3-hydroxy-1-methyl-2-oxo-N-(4-(trifluoromethyl)phenethyl)-1,2-dihydropyridine-4-carboxamide] has an IC50 of 2200 nM. In the case of `CC(CNC(=O)c1ccn(C)c(=O)c1O)Oc1ccc(F)cc1` (stereo not drawn) [Example 137, N-(2-(4-fluorophenoxy)propyl)-3-hydroxy-1-methyl-2-oxo-1,2-dihydropyridine-4-carboxamide], the IC50 is reported as 1660 nM. With `Cn1ccc(C(=O)NCCCOc2cccc(F)c2)c(O)c1=O` [Example 142, N-(3-(3-fluorophenoxy)propyl)-3-hydroxy-1-methyl-2-oxo-1,2-dihydropyridine-4-carboxamide] the IC50 was 216 nM.
